Results on four molecules are retold here after patent publication US20040063790A1, “Methods for inhibition of angiogenesis” (The Scripps Research Institute, priority 1996, published 2004).

Where a SMILES comes first, the peptide text is derived from it. [ ]: non-standard residue; d: D form.

Test [1] concerns tumor-induced angiogenesis. The test can be described thus: CAM assay, tumor-induced angiogenesis, intravenous application. In kind it is in vivo, chick. The settings on record: intravenous injection. How it is done: Angiogenesis was induced in the CAM assay system by direct apposition of a tumor fragment on the CAM. Preparation of the chick embryo CAM was identical to the procedure described above. Instead of a filter paper disk, a 50 milligram (mg) to 55 mg in weight fragment of one of human melanoma tumor M21-L, human lung carcinoma tumor UCLAP-3, human pancreatic carcinoma cell line FG (Cheresh et al., Cell 58:945-953, 1989), or human laryngeal carcinoma cell line HEp3, all of which are αvβ3 negative tumors, was placed on the CAM in an area originally devoid of blood vessels.
The M21-L human melanoma cell line, UCLAP-3 human lung carcinoma cell line, FG pancreatic carcinoma cell line, or HEp3 human laryngeal carcinoma cell line, all αvβ3 negative, were used to grow the solid human tumors on the CAMs of chick embryos. A single cell suspension of 8×10^6 M21-L, UCLAP-3, and FB or 5×10^5 HEp3 cells was first applied to the CAMs in a total volume of 30 μl of sterile HBSS. The windows were sealed with tape and the embryos were incubated for 7 days to allow growth of human tumor lesions. At the end of 7 days, now a 17-day embryo, the tumors were resected from the CAMs and trimmed free of surrounding CAM tissue. […]
The effects of peptide exposure to tumor-induced vasculature in the CAM assay system was also assessed. […]

The test system of test [2] is bFGF-induced angiogenesis. Description: CAM assay, growth factor-induced angiogenesis, topical application. In kind it is in vivo, chick. The conditions noted are these: 80 μg peptide topically at 0, 24 and 48 hrs; viewed at 72 hours. As for the experimental part:
J. Pathol., 79:597 (1975). CAMs were prepared from chick embryos for subsequent induction of angiogenesis and inhibition thereof as described in Examples 4 and 5, respectively. Ten day old chick embryos were obtained from McIntyre Poultry (Lakeside, Calif.) and incubated at 37° C. with 60% humidity. A small hole was made through the shell at the end of the egg directly over the air sac with the use of a small crafts drill (Dremel, Division of Emerson Electric Co. Racine Wis.). A second hole was drilled on the broad side of the egg in a region devoid of embryonic blood vessels determined previously by candling the egg. […]
Angiogenesis was induced by placing a 5 millimeter (mm)×5 mm Whatman filter disk (Whatman Filter paper No.1) saturated with Hanks Balanced Salt Solution (HBSS, GIBCO, Grand Island, N.Y.) or HBSS containing 150 nanograms/milliliter (ng/ml) recombinant basic fibroblast growth factor (bFGF) (Genzyme, Cambridge, Mass.) on the CAM of a 10-day chick embryo in a region devoid of blood vessels and the windows were latter sealed with tape. […] For assays where inhibition of angiogenesis ws evaluated with intravenous injections of antagonists, angiogenesis was first induced with 1-2 μg/ml bFGF in fibroblast growth medium. Angiogenesis was monitored by photomicroscopy after 72 hours. […]
Quantification was performed in a double blind manner by at least two independent observers. […]

Another test addresses T1, αvβ3 (Homo sapiens, UniProt P05106+P06756).
T1 construct: selected purified integrins were separately immobilized in Titertek microtiter wells
Description: Ligand-receptor binding assay, immobilized αvβ3. An excerpt: (§1) Herein described is a method of identifying antagonists in a ligand-receptor binding assay in which the receptor is immobilized to a solid support and the ligand and antagonist are soluble. Also described is a ligand-receptor binding assay in which the ligand is immobilized to a solid support and the receptor and antagonists are soluble.
(§2) Briefly, selected purified integrins were separately immobilized in Titertek microtiter wells at a coating concentration of 50 nanograms (ng) per well. The purification of the receptors used in the ligand-receptor binding assays are well known in the art and are readily obtainable with methods familiar to one of ordinary skill in the art. After incubation for 18 hours at 4° C., nonspecific binding sites on the plate were blocked with 10 milligrams/milliliter (mg/ml) of bovine serum albumin (BSA) in Tris-buffered saline. […] Radiolabeled ligands were used at concentrations of 1 nM and binding was challenged separately with unlabeled synthetic peptides.
(§3) Following a three hour incubation, free ligand was removed by washing and bound ligand was detected by gamma counting. […] The IC50 data in micromoles (IC50 μM) are expressed as the average of duplicate data points±the standard deviation as shown in Table 2.

A further test deals with T2, αIIbβ3 (Homo sapiens, UniProt P05106+P08514).
T2 construct: selected purified integrins were separately immobilized in Titertek microtiter wells
The test can be described thus: Ligand-receptor binding assay, immobilized αIIbβ3. The conditions noted are these: radiolabeled fibrinogen; average of duplicate data points ± standard deviation; read-out: αIIbβ3 (IC50 μM).
From the text: as §1, §2, §3

A further test concerns the target αvβ3 integrin (Homo sapiens, UniProt P05106+P06756). The settings on record: Pfaff et al. 1994; not to the αIIbβ3 or α5β1 integrins; cited from earlier work.
For test [3], the system named is retinal neovascularization. The conditions noted are these: Hammes et al., Nature Med. 1996; cited from earlier work.
The next test has as its system M21-L melanoma tumor. Description: In vivo chimeric mouse:human assay. Set-up: species or system SCID mouse. The conditions noted are these: intravenous, FIG. 18. How it is done:
An in vivo chimeric mouse:human model was generated by replacing a portion of skin from a SCID mouse with human neonatal foreskin (FIG. 4). After the skin graft was established, the human foreskin was inoculated with carcinoma cells. After a measurable tumor was established, either an αvβ3 antagonist or PBS was injected into the mouse tail vein. Following a 2-3 week period, the tumor was excised and analyzed by weight and histology.
The in vivo chimeric mouse:human model is prepared essentially as described in Yan, et al., J. Clin. Invest., 91:986-996 (1993). Briefly, a 2 cm^2 square area of skin was surgically removed from a SCID mouse (6-8 weeks of age) and replaced with a human foreskin. The mouse was anesthetized and the hair removed from a 5 cm^2 area on each side of the lateral abdominal region by shaving. Two circular graft beds of 2 cm^2 were prepared by removing the full thickness of skin down to the fascia. Full thickness human skin grafts of the same size derived from human neonatal foreskin were placed onto the wound beds and sutured into place. […]
In a procedure similar to that described above for monoclonal antibodies, peptide antagonists of αvβ3 were injected intravenously into the tail vein of SCID mice having measurable M21-L tumors. […] The mean volume and weight of resected tumors following treatment were determined with the results respectively shown in FIGS. 19A and 19B.

T1 sequence (P06756 31-889 limits assumed): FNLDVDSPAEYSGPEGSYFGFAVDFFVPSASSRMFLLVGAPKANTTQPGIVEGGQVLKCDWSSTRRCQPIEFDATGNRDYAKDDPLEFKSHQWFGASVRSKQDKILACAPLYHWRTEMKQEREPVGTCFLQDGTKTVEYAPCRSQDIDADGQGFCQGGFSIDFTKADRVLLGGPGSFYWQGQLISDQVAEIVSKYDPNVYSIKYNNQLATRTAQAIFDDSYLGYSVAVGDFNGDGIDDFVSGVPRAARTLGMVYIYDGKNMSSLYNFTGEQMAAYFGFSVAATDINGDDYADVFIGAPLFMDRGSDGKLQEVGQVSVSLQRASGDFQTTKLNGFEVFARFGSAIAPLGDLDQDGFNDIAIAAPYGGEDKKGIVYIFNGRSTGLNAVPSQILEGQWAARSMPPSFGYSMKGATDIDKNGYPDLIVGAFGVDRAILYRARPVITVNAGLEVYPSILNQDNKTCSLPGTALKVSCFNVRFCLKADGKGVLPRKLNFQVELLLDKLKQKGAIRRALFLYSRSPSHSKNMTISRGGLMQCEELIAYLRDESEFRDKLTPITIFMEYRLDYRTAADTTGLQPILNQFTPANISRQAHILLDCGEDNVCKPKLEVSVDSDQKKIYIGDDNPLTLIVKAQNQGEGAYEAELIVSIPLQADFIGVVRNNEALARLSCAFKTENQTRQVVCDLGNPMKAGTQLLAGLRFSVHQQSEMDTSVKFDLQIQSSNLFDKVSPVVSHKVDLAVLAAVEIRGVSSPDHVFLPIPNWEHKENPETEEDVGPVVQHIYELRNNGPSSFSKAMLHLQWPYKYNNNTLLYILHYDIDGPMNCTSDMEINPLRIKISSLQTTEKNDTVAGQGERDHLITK
T1 sequence (P06756 891-1048 partner limits assumed): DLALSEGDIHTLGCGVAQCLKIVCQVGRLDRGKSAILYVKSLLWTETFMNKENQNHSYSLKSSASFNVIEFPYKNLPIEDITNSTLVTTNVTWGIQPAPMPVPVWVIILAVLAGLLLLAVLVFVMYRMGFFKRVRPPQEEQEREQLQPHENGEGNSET
T1 sequence (P05106 27-788): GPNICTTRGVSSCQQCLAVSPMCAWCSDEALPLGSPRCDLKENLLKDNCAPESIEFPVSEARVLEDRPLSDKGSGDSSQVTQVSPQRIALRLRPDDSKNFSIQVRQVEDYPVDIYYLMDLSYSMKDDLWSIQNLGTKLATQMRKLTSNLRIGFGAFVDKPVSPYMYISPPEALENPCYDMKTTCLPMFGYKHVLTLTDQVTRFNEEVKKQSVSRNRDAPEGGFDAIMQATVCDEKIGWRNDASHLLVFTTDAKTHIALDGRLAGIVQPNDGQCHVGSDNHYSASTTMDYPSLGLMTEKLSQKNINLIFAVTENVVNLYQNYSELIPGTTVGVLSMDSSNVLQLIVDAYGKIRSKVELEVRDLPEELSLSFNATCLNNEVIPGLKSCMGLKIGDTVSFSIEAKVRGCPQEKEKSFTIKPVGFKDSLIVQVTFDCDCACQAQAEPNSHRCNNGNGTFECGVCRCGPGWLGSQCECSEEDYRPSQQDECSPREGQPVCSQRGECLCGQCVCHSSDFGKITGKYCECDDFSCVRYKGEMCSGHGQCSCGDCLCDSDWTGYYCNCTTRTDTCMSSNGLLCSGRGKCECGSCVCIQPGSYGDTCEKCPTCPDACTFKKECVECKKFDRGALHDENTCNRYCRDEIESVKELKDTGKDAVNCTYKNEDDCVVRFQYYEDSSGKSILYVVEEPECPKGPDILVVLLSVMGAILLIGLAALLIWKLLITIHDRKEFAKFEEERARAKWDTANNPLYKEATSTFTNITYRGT
αvβ3 integrin, sequence (P06756 31-889 limits assumed): as the sequence (P06756 31-889 limits assumed) above
αvβ3 integrin, sequence (P06756 891-1048 partner limits assumed): as the sequence (P06756 891-1048 partner limits assumed) above
αvβ3 integrin, sequence (P05106 27-788): as the sequence (P05106 27-788) above
T2 sequence (P08514 32-887 limits assumed): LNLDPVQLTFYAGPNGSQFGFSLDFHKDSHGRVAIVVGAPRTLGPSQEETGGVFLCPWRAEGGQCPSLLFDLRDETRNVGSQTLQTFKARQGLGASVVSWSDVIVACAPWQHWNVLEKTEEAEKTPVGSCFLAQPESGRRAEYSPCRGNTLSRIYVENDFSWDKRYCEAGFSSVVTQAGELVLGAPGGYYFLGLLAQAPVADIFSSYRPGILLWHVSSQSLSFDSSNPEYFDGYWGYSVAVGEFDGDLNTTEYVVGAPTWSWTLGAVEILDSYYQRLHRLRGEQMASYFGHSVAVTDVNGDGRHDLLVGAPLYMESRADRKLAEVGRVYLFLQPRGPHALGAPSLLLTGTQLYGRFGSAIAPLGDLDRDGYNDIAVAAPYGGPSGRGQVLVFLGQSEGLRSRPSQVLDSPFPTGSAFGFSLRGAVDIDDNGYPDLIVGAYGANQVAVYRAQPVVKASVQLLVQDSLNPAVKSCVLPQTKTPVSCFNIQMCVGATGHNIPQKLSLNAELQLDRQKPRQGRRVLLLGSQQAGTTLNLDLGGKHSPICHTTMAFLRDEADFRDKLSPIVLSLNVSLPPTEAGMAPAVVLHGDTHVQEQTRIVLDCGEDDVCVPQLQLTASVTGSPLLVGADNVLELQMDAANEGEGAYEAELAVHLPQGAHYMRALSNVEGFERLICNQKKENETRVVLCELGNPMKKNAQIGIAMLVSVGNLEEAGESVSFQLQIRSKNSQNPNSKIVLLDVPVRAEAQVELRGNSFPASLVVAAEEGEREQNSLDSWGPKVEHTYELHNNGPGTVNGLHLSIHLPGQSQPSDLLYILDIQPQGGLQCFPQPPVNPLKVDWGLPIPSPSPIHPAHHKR
T2 sequence (P08514 891-1039 partner limits assumed): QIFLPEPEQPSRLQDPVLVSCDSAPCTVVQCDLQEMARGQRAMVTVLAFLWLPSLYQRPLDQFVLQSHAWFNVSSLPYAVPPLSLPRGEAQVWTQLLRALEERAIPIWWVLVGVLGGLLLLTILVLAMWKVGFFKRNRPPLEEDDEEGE
T2 sequence (P05106 27-788): as the sequence (P05106 27-788) above

Regarding `CC(C)[C@@H]1NC(=O)[C@@H](Cc2ccccc2)NC(=O)[C@H](CC(=O)O)NC(=O)CNC(=O)[C@H](CCCNC(=N)N)NC1=O` [Peptide 62184, cyclo (RGDfV)], the “inhibition of tumor-induced blood vessel formation” value in test [1] was “demonstrated to inhibit angiogenesis”. Moreover, the “effect on bFGF-induced blood vessel formation” value in test [2] is “formation of blood vessels was inhibited”.

With `CC(C)[C@@H]1NC(=O)[C@H](Cc2ccccc2)NC(=O)[C@H](CC(=O)O)NC(=O)[C@@H](C)NC(=O)[C@H](CCCNC(=N)N)NC1=O` [Peptide 62186, cyclo (RaDFV)] (cyclo(R[dA]DFV)), at αvβ3 (comparison of half-maximal concentrations of Table 2), the “preference of inhibition of fibrinogen binding, αvβ3 versus αIIbβ3” value was “either not as effective in blocking fibrinogen binding to αvβ3 or exhibited preferential inhibition of fibrinogen binding to αIIbβ3”. The IC50 – broadly, the concentration needed to halve the response being measured – is 57.5 ± 7.84 µM at αvβ3 (radiolabeled fibrinogen, average of duplicate data points ± standard deviation, read-out: αvβ3 (IC50 μM)) and 100 ± 0.001 µM on αIIbβ3. The “effect on bFGF-induced blood vessel formation” value in test [2] was “remained undisturbed”.

In the case of cyclic RGDfV, the “inhibition of fibrinogen binding to integrins” value at αvβ3 integrin is given as “specifically inhibited binding of fibrinogen to the αvβ3 integrin”. In addition, in test [3], the “inhibition of retinal neovascularization” value is listed as “inhibited retinal neovascularization”.

B1: LM609: monoclonal antibody specific for αvβ3 (anti-αvβ3) (antibody, V domains shown)
VH: EVQLEESGGGLVKPGGSLKLSCAASGFAFSSYDMSWVRQIPEKRLEWVAKVSSGGGSTYYLDTVQGRFTISRDNAKNTLYLQMSSLNSEDTAMYYCARHNYGSFAYWGQGTLVTVSA
VL: ELVMTQTPATLSVTPGDSVSLSCRASQSISNHLHWYQQKSHESPRLLIKYASQSISGIPSRFSGSGSGTDFTLSINSVETEDFGMYFCQQSNSWPHTFGGGTKLEIKRA
B1: the tumor volume entry in the test on M21-L melanoma tumor was “approximately 60 mm^3”.
